For 46 compounds, IC50 results are on record in patent US20250326772A1, “MRGPRX2 ANTAGONISTS, PHARMACEUTICAL COMPOSITION INCLUDING MRGPRX2 ANTAGONIST, AND METHOD OF TREATING MRGPRX2-MEDIATED DISEASE OR DISORDER” (KYORIN PHARMACEUTICAL CO., LTD., priority 2024, published 2025).

The structures appear in SMILES notation.

One test concerns the target T1, MRGPRX2 (Homo sapiens, UniProt Q96LB1).
T1 sequence (Q96LB1 1-330): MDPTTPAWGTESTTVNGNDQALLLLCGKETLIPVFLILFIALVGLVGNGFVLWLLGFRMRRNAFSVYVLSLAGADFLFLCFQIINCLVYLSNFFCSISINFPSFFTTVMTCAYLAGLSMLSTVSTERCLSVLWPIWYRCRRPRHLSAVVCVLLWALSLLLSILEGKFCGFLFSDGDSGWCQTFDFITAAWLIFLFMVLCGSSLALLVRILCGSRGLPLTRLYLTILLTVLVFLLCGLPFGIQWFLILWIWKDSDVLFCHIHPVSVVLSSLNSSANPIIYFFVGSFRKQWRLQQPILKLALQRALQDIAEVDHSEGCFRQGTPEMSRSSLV
The experiment in a line: MRGPRX2 reporter cell assay (NFAT-RE luciferase, Substance P stimulation). To be noted: U2OS cells stably transfected with MRGPRX2 and NFAT-RE luciferase reporter; Substance P at EC80. In kind it is cell-based. Put shortly:
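U2OS cells stably expressing MRGPRX2 and an NFAT-RE luc2P reporter, pre-incubated 30 min at 37° C with compound (0.5% DMSO), then stimulated with Substance P at EC80 for 6 h. Luminescence after ONE-GLO; percent inhibition fitted by four-parameter logistic to IC50.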
Turning to `COC(=O)N[C@@H]1COc2c(-c3[nH]c4ncccc4c3-c3cn(C)nc3C#N)c(C(F)F)nn2C1` [EX. 517], the half-maximal inhibitory concentration (IC50) worked out at 3.2 nM.

Staying with this test, now noted: U2OS cells stably transfected with MRGPRX2 and NFAT-RE luciferase reporter; Substance P at EC80; class symbols.
Regarding `Cn1cc(-c2c(-c3c(C(F)F)nn4c3OC[C@@H](NC(=O)[C@@H]3CC3(F)F)C4)[nH]c3ncccc23)c(OC(F)F)n1` [EX. 552], the half-maximal inhibitory concentration (IC50) was less than 10 nM.
On the same count and under the same terms, for `COc1ccc(C#N)c(-c2c(-c3c(C(F)F)nn4c3OC[C@H](O)C4)[nH]c3ncccc23)c1` [EX. 368] the value was less than 10 nM; for `N#Cc1ncccc1-c1c(-c2c(C(F)F)nn3c2OCCC3)[nH]c2ncccc12` [EX. 411], 10 to 100 nM.
On the same count and under the same terms, for `Cn1cc(-c2[nH]c3ncccc3c2-c2ccccc2C#N)c(C(F)F)n1` [EX. 146] the value was less than 10 nM; for `Cc1cc(-c2c(-c3c(C(F)F)nn4c3OC[C@@H](OCCO)C4)[nH]c3ncccc23)c(C#N)s1` [EX. 507], less than 10 nM; for `C[C@H](O)C(=O)N[C@@H]1COc2c(-c3[nH]c4ncccc4c3-c3cn(C)nc3OC(F)F)c(C(F)F)nn2C1` [EX. 561], less than 10 nM.
Take `CS(=O)(=O)N[C@@H]1COc2c(-c3[nH]c4ncccc4c3-c3csnc3OC(F)F)c(C(F)F)nn2C1` [EX. 524]: the IC50 is less than 10 nM.
In turn, `Cn1cc(-c2c(-c3c(C(F)F)nn4c3OCC4)[nH]c3ncccc23)c(OC(F)F)n1` [EX. 432] showed an IC50 of less than 10 nM.
Compound `Cn1cc(-c2c(-c3c(C(F)F)nn4c3OC[C@@H](OCCNS(C)(=O)=O)C4)[nH]c3ncccc23)c(OC(F)F)n1` [EX. 536] came in with an IC50 of less than 10 nM.
`COc1ccc(C#N)c(-c2c(-c3c(C(F)F)nn4c3OC[C@H](N)C4)[nH]c3ncccc23)c1` [EX. 361]: the 50% inhibitory concentration (IC50) was less than 10 nM.
The same measure, in the same setting: for `Cn1cc(-c2c(-c3c(C(F)F)nn4c3OC[C@@H](NS(C)(=O)=O)C4)[nH]c3ncsc23)c(OC(F)F)n1` [EX. 520, (S)—N-(3-(6-(3-(difluoromethoxy)-1-methyl-1H-pyrazol-4-yl)-4H-pyrrolo[2,3-d]thiazol-5-yl)-2-(difluoromethyl)-6,7-dihydro-5H-pyrazolo[5,1-b] [1,3]oxazin-6-yl) methanesulfonamide] the value was less than 10 nM.
Regarding `Cn1cc(-c2c(-c3c(C(F)F)nn4c3OC[C@@H](N3CCCS3(=O)=O)C4)[nH]c3ncccc23)c(OC(F)F)n1` [EX. 580], the IC50 is less than 10 nM.
The compound `[2H]c1cnc2[nH]c(-c3cn(C)nc3C(F)F)c(-c3cc(OC([2H])([2H])[2H])ccc3C#N)c2c1` [EX. 89] displayed an IC50 of less than 10 nM.
Same read-out and setting: the same measure for `Cc1nn2c(c1-c1[nH]c3ncccc3c1-c1cccnc1OC(F)F)OC[C@@H](OCCO)C2` [EX. 498]: less than 10 nM; for `COc1ccc(C#N)c(-c2c(-c3cc(F)ccc3OC)[nH]c3ncccc23)c1` [EX. 107, 2-(2-(5-fluoro-2-methoxyphenyl)-1H-pyrrolo[2,3-b]pyridin-3-yl)-4-methoxybenzonitrile]: less than 10 nM.
The same measure, in the same setting: for `CNC(=O)O[C@@H]1COc2c(-c3[nH]c4ncccc4c3-c3cn(C)nc3C#N)c(C(F)F)nn2C1` [EX. 503] the value was less than 10 nM; for `N#Cc1ccccc1-c1c(-c2n[nH]cc2C(F)(F)F)[nH]c2ncccc12` [EX. 264], less than 10 nM.
Same read-out and setting: for `Cc1nn2c(c1-c1[nH]c3ncccc3c1-c1cn(C)nc1OC(F)F)OC[C@@H](OCCO)C2` [EX. 542] the value was less than 10 nM; for `C[C@H](O)COC(=O)N[C@@H]1COc2c(-c3[nH]c4ncccc4c3-c3cn(C)nc3OC(F)F)c(C(F)F)nn2C1` [EX. 567], less than 10 nM.
Compound `Cc1cc(-c2c(-c3c(C(F)F)nn4c3OC[C@@](C)(O)C4)[nH]c3ncccc23)c(C#N)s1` [EX. 451] returned an IC50 of less than 10 nM.
The compound `FC(F)Oc1cnccc1-c1c(-c2c(C(F)F)nn3c2OCCC3)[nH]c2ncccc12` [EX. 489] displayed a concentration for half-maximal inhibition (IC50) of less than 10 nM.
On the same count and under the same terms, the same measure for `COc1ccc(C#N)c(-c2c(-c3c(C)nn4c3OCC(NC(C)=O)C4)[nH]c3ncccc23)c1` (centres unmarked) [EX. 356]: less than 10 nM; for `CN(C)CCO[C@@H]1COc2c(-c3[nH]c4ncccc4c3-c3cn(C)nc3OC(F)F)c(C(F)F)nn2C1` [EX. 538]: less than 10 nM.
Same read-out and setting: the same measure for `Cc1cc(-c2c(-c3cn(C)nc3C(F)F)[nH]c3ncccc23)c(C#N)s1` [EX. 287]: less than 10 nM.
`COc1ccc(C#N)c(-c2c(-c3c(C(F)F)nn4c3OC[C@@H](O)C4)[nH]c3ncccc23)c1` [EX. 369] displayed an IC50 of less than 10 nM.
In turn, `FC(F)c1nn2c(c1-c1[nH]c3ncccc3c1-c1ccccc1)OC[C@@H](F)C2` [EX. 445] yielded a concentration for half-maximal inhibition (IC50) of less than 10 nM.
On the same count and under the same terms, for `COC(=O)N[C@@H]1COc2c(-c3[nH]c4ncsc4c3-c3cn(C)nc3OC(F)F)c(C(F)F)nn2C1` [EX. 519] the value was less than 10 nM.
For `CO[C@@H]1COc2c(-c3[nH]c4ncccc4c3-c3cccnc3OC(F)F)c(C)nn2C1` [EX. 497], the IC50 was less than 10 nM.
The same measure, in the same setting: the same measure for `CCc1nn2c(c1-c1[nH]c3ncccc3c1-c1cn(C)nc1OC(F)F)OC[C@@H](NS(C)(=O)=O)C2` [EX. 545]: less than 10 nM.
On the same count and under the same terms, for `Cn1cc(-c2c(-c3c(C(F)F)nn4c3OC[C@@H](NC(=O)C3CC3)C4)[nH]c3ncccc23)c(C#N)n1` [EX. 593, (S)—N-(3-(3-(3-cyano-1-methyl-1H-pyrazol-4-yl)-1H-pyrrolo[2,3-b]pyridin-2-yl)-2-(difluoromethyl)-6,7-dihydro-5H-pyrazolo[5,1-b] [1,3]oxazin-6-yl) cyclopropanecarboxamide] the value was less than 10 nM.
On to `Cn1cc(-c2c(-c3c(C4CC4)nn4c3OC[C@@H](O)C4)[nH]c3ncccc23)c(OC(F)F)n1` [EX. 485], for which the IC50 is less than 10 nM.
Same read-out and setting: for `COc1ccc(F)cc1-c1[nH]c2nccc(F)c2c1-c1ccccc1C#N` [EX. 27] the value was less than 10 nM.
Still for that read-out and setting: for `[2H]C([2H])([2H])Oc1ccc(C#N)c(-c2c(-c3c(C)nn4c3OC(C)C4)[nH]c3ncccc23)c1` (centres unmarked) [EX. 167] the value was less than 10 nM; for `[2H]C([2H])([2H])Oc1ccc(C#N)c(-c2c(-c3c(C)nn4cc(C)cnc34)[nH]c3ncccc23)c1` [EX. 266], less than 10 nM.
The compound `N#Cc1ccccc1-c1c(-c2cc(F)ccc2O)[nH]c2ncccc12` [EX. 54] registered an IC50 of less than 10 nM.
The same measure, in the same setting: for `FC(F)Oc1ncccc1-c1c(-c2c(C(F)F)nn3c2OCC3)[nH]c2ncccc12` [EX. 442] the value was less than 10 nM; for `COc1ccc(F)cc1-c1[nH]c2ncccc2c1-c1cc(C)ccc1C#N` [EX. 326], less than 10 nM.
On the same count and under the same terms, for `Cc1ccc(C#N)c(-c2c(-c3c[nH]nc3C(F)F)[nH]c3ncccc23)c1` [EX. 101] the value was less than 10 nM; for `Cn1cc(-c2c(-c3c(C(F)F)nn4c3OC[C@@H](NC(=O)C3(F)CC3)C4)[nH]c3ncccc23)c(OC(F)F)n1` [EX. 588], less than 10 nM.
On the same count and under the same terms, for `O[C@@H]1COc2c(-c3[nH]c4ncccc4c3-c3ccc(F)cc3OC(F)F)c(C(F)F)nn2C1` [EX. 467] the value was less than 10 nM.
`COC(=O)N[C@@H]1COc2c(-c3[nH]c4ncccc4c3-c3cn(C)nc3OC(F)F)c(C3CC3)nn2C1` [EX. 483] registered an IC50 of less than 10 nM.
On the same count and under the same terms, the same measure for `CCn1cc(-c2[nH]c3ncccc3c2-c2ccccc2C#N)c(C(F)(F)F)n1` [EX. 147]: less than 10 nM; for `COC(=O)N[C@@H]1COc2c(-c3[nH]c4ncccc4c3-c3cn(C)nc3C#N)c(C(F)F)nn2C1` [EX. 517]: less than 10 nM; for `Cn1cc(-c2c(-c3c(CF)nn4c3OCCC4)[nH]c3ncccc23)c(OC(F)F)n1` [EX. 423]: less than 10 nM.
Same read-out and setting: for `Cn1cc(-c2[nH]c3ncccc3c2-c2ccccc2C#N)c(CF)n1` [EX. 270] the value was less than 10 nM.
`COc1nscc1-c1c(-c2c(C(F)F)nn3c2OCCC3)[nH]c2ncccc12` [EX. 404] displayed an IC50 of 10 to 100 nM.
